Source: paper PMC9329436, “Optimization of the 4-anilinoquin(az)oline scaffold as epidermal growth factor receptor (EGFR) inhibitors for chordoma utilizing a toxicology profiling assay platform” (Scientific Reports, 2022)
Read-outs that look alike come from different tables or passages of the source.

Key:
Format in all cases: biochemical
[1] = target: T1, 320 wild-type protein kinases (Homo sapiens, UniProt P15735); settings: singlicate
T1 sequence (P15735 1-406): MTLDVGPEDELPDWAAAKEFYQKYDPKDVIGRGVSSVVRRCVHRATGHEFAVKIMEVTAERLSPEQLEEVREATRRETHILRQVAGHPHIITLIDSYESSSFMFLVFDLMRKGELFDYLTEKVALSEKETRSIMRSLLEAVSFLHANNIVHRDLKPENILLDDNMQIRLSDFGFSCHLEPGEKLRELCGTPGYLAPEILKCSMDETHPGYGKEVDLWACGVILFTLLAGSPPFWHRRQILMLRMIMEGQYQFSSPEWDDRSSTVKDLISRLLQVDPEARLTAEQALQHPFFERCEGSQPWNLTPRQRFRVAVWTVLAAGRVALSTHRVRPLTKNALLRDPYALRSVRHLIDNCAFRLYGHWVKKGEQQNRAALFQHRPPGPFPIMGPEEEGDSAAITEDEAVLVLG
From the text: (§1) Table S4. Profiling of two compounds at two concentrations against 320 wild-type protein kinases; singlicate measurement; Residual activities (% of control).

[2] = target: T2, 320 wild-type protein kinases (Homo sapiens, UniProt P30530); settings: AXL, singlicate
T2 sequence (P30530 26-894): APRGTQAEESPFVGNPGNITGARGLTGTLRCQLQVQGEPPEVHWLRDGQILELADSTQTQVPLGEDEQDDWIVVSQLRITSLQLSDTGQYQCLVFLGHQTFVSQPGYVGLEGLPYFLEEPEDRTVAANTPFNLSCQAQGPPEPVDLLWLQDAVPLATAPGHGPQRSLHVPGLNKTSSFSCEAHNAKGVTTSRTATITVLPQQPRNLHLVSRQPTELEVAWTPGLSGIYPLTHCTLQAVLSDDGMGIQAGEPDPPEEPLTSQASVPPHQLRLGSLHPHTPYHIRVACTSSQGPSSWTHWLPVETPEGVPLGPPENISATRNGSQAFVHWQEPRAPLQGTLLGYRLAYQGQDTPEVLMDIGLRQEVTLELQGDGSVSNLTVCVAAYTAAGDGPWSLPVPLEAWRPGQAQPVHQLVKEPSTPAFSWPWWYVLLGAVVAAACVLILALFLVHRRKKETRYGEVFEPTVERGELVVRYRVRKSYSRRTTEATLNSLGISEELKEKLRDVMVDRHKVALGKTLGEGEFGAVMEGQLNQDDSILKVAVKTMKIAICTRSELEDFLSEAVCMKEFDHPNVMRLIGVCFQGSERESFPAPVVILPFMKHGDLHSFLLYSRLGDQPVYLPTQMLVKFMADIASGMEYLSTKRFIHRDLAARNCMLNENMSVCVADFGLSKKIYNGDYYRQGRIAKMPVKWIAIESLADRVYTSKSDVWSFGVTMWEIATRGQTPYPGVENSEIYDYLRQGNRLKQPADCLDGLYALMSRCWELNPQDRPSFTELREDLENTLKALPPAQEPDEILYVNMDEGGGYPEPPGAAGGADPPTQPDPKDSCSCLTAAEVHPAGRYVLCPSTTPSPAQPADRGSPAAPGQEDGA
From the text: as §1

[3] = target: 320 wild-type protein kinases (Homo sapiens, UniProt Q13233); settings: singlicate
From the text: as §1

[4] = target: T3, 320 wild-type protein kinases (Homo sapiens, UniProt Q9NZJ5); settings: singlicate
T3 sequence (Q9NZJ5 30-1116): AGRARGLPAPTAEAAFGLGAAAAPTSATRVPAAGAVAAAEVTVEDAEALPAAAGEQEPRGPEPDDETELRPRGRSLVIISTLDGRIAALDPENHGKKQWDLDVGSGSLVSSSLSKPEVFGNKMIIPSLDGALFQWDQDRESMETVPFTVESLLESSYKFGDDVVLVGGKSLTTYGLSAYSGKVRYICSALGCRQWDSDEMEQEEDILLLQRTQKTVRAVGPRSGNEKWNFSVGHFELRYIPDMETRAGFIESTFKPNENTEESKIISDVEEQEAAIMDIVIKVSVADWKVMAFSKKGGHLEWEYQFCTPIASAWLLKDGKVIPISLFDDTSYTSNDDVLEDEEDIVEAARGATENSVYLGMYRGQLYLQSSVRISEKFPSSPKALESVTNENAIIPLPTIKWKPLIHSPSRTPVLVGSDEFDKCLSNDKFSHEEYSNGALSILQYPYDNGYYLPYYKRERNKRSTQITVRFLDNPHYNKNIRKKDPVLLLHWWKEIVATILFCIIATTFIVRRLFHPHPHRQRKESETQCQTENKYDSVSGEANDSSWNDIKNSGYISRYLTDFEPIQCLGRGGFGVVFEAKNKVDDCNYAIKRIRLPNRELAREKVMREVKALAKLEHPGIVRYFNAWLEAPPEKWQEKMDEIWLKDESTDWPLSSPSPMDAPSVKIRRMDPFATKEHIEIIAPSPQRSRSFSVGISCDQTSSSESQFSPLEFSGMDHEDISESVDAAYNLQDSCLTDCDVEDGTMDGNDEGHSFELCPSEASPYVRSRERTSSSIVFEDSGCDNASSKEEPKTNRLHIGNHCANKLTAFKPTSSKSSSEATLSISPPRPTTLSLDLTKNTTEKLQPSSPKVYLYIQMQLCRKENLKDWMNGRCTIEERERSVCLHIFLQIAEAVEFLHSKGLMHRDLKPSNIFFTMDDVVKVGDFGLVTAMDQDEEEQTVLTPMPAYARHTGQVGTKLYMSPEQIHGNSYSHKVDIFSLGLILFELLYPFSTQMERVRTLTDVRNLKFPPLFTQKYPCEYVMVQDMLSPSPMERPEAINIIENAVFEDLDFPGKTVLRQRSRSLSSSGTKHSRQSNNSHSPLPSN
From the text: as §1

Sequence of 320 wild-type protein kinases (Homo sapiens, UniProt Q13233) (Q13233 whole entry): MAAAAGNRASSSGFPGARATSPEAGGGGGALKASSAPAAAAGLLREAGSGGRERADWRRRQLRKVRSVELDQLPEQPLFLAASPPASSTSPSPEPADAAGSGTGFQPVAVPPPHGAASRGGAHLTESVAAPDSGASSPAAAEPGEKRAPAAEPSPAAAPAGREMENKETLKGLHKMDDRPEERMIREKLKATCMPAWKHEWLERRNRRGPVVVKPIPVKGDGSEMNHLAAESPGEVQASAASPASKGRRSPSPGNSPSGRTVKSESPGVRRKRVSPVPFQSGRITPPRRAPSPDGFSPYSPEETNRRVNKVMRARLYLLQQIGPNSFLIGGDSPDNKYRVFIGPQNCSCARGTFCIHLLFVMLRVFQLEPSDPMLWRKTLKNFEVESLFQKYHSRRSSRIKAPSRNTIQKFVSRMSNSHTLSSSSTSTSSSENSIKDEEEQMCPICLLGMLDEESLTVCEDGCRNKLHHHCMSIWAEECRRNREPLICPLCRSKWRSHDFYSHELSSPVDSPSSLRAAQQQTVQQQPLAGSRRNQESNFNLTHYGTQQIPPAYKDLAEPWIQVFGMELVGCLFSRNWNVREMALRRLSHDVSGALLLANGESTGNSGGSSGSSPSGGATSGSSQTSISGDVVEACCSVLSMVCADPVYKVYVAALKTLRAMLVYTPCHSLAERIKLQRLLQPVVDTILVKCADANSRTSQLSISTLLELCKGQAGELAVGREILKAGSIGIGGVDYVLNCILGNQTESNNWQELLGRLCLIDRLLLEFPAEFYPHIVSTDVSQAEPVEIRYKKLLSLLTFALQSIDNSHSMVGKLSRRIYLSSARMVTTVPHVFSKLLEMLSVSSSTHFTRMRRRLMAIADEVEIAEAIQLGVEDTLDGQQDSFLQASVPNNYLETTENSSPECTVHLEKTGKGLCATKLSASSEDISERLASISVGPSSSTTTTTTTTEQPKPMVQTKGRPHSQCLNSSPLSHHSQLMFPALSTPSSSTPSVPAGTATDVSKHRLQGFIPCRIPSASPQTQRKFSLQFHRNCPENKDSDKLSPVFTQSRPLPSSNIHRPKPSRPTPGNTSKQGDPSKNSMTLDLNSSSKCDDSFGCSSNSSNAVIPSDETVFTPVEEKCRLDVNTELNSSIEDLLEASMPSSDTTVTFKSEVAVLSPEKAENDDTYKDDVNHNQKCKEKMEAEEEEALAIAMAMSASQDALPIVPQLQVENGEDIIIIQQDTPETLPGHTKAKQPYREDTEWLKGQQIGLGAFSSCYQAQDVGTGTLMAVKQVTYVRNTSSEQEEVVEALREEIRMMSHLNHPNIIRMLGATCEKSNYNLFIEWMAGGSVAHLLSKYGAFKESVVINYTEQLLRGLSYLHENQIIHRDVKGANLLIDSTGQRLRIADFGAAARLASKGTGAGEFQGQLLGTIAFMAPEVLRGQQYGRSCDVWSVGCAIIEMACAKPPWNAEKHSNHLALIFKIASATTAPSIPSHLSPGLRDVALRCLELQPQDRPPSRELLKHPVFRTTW

Compound	Residual activity ([1]; PHKG2, 1.0E-06 M)	Residual activity ([1]; PHKG2, 1.0E-07 M)	Residual activity ([2]; 1.0E-06 M)	Residual activity ([2]; 1.0E-07 M)	Residual activity ([3]; MAP3K1, 1.0E-06 M)	Residual activity ([3]; MAP3K1, 1.0E-07 M)	Residual activity ([4]; EIF2AK3, 1.0E-06 M)	Residual activity ([4]; EIF2AK3, 1.0E-07 M)
C#Cc1cc(Nc2ncnc3cc(I)ccc23)ccc1Cl [Compound 41]	98 % of control	94 % of control	97 % of control	116 % of control	93 % of control	96 % of control	95 % of control	86 % of control
C#Cc1cc(Nc2ncnc3cc(OC)c(OC)cc23)ccc1Cl [Compound 45]	103 % of control	95 % of control	80 % of control	103 % of control	96 % of control	96 % of control	82 % of control	90 % of control
